The values that follow come from PMC12040169 (PLOS Biology, 2025).

The structures appear in SMILES notation.

The term viability denotes a read-out of living cells in per cent, often relative to untreated cells.

A short description of this data set: in vitro. Conditions: human, hela cells, % viability.

Turning to `O=C(CC1=C(O)C(=O)c2ccccc2C1=O)c1ccccc1` [CBK262002], the viability at 28.5 h, 10 µM was determined as 80.5%. On the same count and under the same terms, under `CC(C)[C@@H](CO)n1c(=O)[nH]c2ncc(-c3ccco3)nc21` [CBK065018] stands 106%; under `Clc1ccccc1CN(CCCn1ccnc1)Cc1c[nH]cn1` [CBK282988], 100%; under `CCCCCC1CC(CC(=O)NC(=S)Nc2ccccc2Cl)C(=O)O1` (stereo not shown) [CBK019495], 86.8%. Same read-out and setting: under `NS(=O)(=O)c1ccc(N2N=C(c3ccccc3)CC2c2ccccc2)cc1` (stereo not shown) [CBK261511] stands 95.9%; under `CCCC1CCCN(Cc2nnnn2-c2ccc(S(C)(=O)=O)cc2)C1` (stereo not shown) [CBK304142], 89.2%; under `Clc1ccc(CN2CCC(Oc3cncc(OCC4COc5ccccc5O4)n3)C2)cc1` (stereo not shown) [CBK084364], 94.7%.

In the case of `COc1ccc(C(CC(=O)O)CC(=O)O)cc1OC` [CBK263545], the viability at 28.5 h, 10 µM is 91.9%. For `CSc1nc(O)cc(C(F)(F)F)n1` [CBK001401], the viability at 28.5 h, 10 µM turned out to be 112%. The same measure, in the same setting: under `Cc1csc(C(Cc2ccsc2)NC(=O)c2c(C)noc2C)n1` (stereo not shown) [CBK285045] stands 102%; under `O=C(Nc1ccccc1C(=O)O)c1ccccc1Cl` [CBK287114], 88%. On the same count and under the same terms, the value for `O[C@@]1(c2ccccn2)CC[C@H]2CN(CC3CCCCC3)C[C@H]21` [CBK282996] was 96.9%; that for `O=S(=O)(NCCc1ccccc1)c1cccc2nsnc12` [CBK261128] was 103%. Same read-out and setting: under `COc1ccc(S(=O)(=O)Nc2cccc(C(=O)Nc3ccc(F)cc3)c2)cc1OC` [CBK038982] stands 71.7%.

For the molecule `COc1ccc(CCNC(=O)NS(=O)(=O)c2ccc(C)cc2)cc1OC` [CBK300510], the viability at 28.5 h, 10 µM turned out to be 88%.

Consider `O=C(c1ccc2[nH]ccc2c1)N1CCC2(CCN(Cc3ccccc3)C2)C1` (stereo not shown) [CBK137146], for which the viability at 28.5 h, 10 µM amounted to 98.5%. Take `COc1ccccc1CC(=O)N1CCCC1c1nc2ccccc2[nH]1` (stereo not shown) [CBK285517]: the viability at 28.5 h, 10 µM stood at 94.6%. Turning to `CC(C)CCc1csc(C2CN3CCCC3CO2)n1` (stereo not shown) [CBK304266], the viability at 28.5 h, 10 µM came to 89.9%. Same read-out and setting: under `CN1CCCN(c2nccnc2-c2ccccc2CO)CC1` [CBK038014] stands 106%; under `CC(C)N(C(=O)N1CCC2(CC1)CC(=O)c1ccccc1O2)C(C)C` [CBK284010], 90.7%; under `COC(=O)CCN(C)CCC(=O)OC` [CBK264539C], 95.4%. Same read-out and setting: the value for `CCC(=O)Nc1nnc(-c2ccc3c(c2)OCCO3)o1` [CBK287404] was 92.6%. For the molecule `O=C(Nc1ccc(O)cc1C(=O)O)c1cccc(Br)c1` [CBK018511], the viability at 28.5 h, 10 µM came out at 89.1%. For `COc1ccc(-c2cc(C(=O)NCCS(C)(=O)=O)cnc2-c2ccc(Cl)cc2)cc1` [CBK037620], the viability at 28.5 h, 10 µM is 111%. Same read-out and setting: under `CC(C)CN(CC(=O)NC1(c2ccccc2)CCC1)C(=O)N(C)C` [CBK062704] stands 96.1%; under `O=c1c2c(n3c(S)nnc3n1Cc1ccco1)-c1ccccc1CC21CCCCC1` [CBK265271], 94.7%; under `Cc1nn(C)cc1-c1cncn1Cc1ccc2c(c1)CCCO2` [CBK281797], 90.4%. The same measure, in the same setting: the value for `CC1(CC(=O)Nc2ccccc2)NC(=S)N(c2ccccc2)N1` (stereo not shown) [CBK265534] was 105%; that for `O=C(CSc1nnc(-c2ccncc2)n1-c1ccccc1)Nc1ccc([N+](=O)[O-])cc1` [CBK266620] was 96.3%; that for `COc1ccc(CCCC(=O)n2c(=O)n(CCc3c[nH]c4ccccc34)c3ccccc32)cc1` [CBK106514] was 91.3%. Same read-out and setting: under `O=C(CC1Sc2ccc(Cl)cc2NC1=O)Nc1ccc([N+](=O)[O-])cc1` (stereo not shown) [CBK264860] stands 98%; under `CC(=C\C(=O)O)/C(=C\c1ccc(Br)cc1)C(=O)O` [CBK278280N], 88.1%. As to `Oc1nccc(Oc2ccnc(Cl)n2)n1` [CBK000010], the viability at 28.5 h, 10 µM is 98.5%.

As for `CC(C)(C)NS(=O)(=O)c1ccc(CCC(=O)Nc2ccc(F)c(Cl)c2)cc1` [CBK266974], the viability at 28.5 h, 10 µM stood at 89.9%. For `CCC(=O)N1CCN(CCNC=C2C(=O)CC(c3cccs3)CC2=O)CC1` (stereo not shown) [CBK264817], the viability at 28.5 h, 10 µM amounted to 97%. Same read-out and setting: under `C[C@@H]1CN(C(=O)c2nccc3ccccc23)C[C@H](C)O1` [CBK200233] stands 92.8%; under `CC(NS(=O)(=O)c1ccc(OCC(=O)N2CCc3ccccc3C2)c(Cl)c1)c1ccccc1` (stereo not shown) [CBK269117], 92%; under `c1ccc2c(c1)CCN2c1ncnc2c1nc1n2CCCCC1` [CBK291119], 91.1%.

Consider `Cc1ccn(CCNC(=O)c2cc(-c3cccs3)no2)n1` [CBK282679], for which the viability at 28.5 h, 10 µM worked out at 78.9%. The same measure, in the same setting: under `CCN(CC)C(=O)NC(c1ccccc1OC)c1nccn1C` (stereo not shown) [CBK283803] stands 80.8%; under `COc1cc(NC(=O)N2CCN(c3cc(C(F)(F)F)ccn3)CC2)cc(OC)c1OC` [CBK162349], 95.2%; under `Cc1csc2c(NC(C)C)ncnc12` [CBK017059], 95.7%. As for `O=C(Nc1nc(-c2ccccc2)cs1)c1ccc(Br)cc1` [CBK068003], the viability at 28.5 h, 10 µM came to 82.4%. The same measure, in the same setting: under `CC(=O)Nc1cccc(NS(=O)(=O)c2ccc(N3CCNCC3)c3ccccc23)c1` [CBK028702C] stands 105%; under `CC(=O)N1CCc2c([nH]c3ccccc23)C1CNCc1ccc(F)cc1` (stereo not shown) [CBK066968], 96.6%; under `COCCNC(=O)[C@@H](C)C1CC[C@@]2(C)CC[C@H](NS(C)(=O)=O)[C@@H](C)[C@@H]2[C@H]1O` (stereo partly shown) [CBK289457], 93.5%.

Turning to `COc1ccc(OCC(=O)Nc2ccc(CN3CCOCC3)cc2)cc1` [CBK269686], the viability at 28.5 h, 10 µM was 105%.

With `Cc1nc(C)c(C(=O)NCC2CCCOC2)s1` (stereo not shown) [CBK282194], the viability at 28.5 h, 10 µM was 97.2%. Consider `COc1ccc(-c2noc([C@@H]3Cc4[nH]cnc4CN3C(=O)CCC(=O)O)n2)cc1` [CBK288967], for which the viability at 28.5 h, 10 µM came to 90.3%. Same read-out and setting: under `C=CCn1c(-c2sc(NC(=O)c3cc4ccccc4s3)nc2C)n[nH]c1=S` [CBK295303] stands 94.8%.

Take `Cc1cc(C)n(CCNC2CCN(c3ccccc3C)CC2)c(=O)n1` [CBK306848]: the viability at 28.5 h, 10 µM was 89.1%.

With `O=C(O)CCc1nc(-c2ccncc2)no1` [CBK288558], the viability at 28.5 h, 10 µM came out at 98.7%. The same measure, in the same setting: the value for `Cc1ccc(/C=C/C(=O)O)cc1S(=O)(=O)N(CCO)CCO` [CBK264840] was 99%. The same measure, in the same setting: the value for `Cc1n[nH]c(-c2ccc(OCc3cnn(-c4ccccc4)c3)cc2O)c1Oc1ccc(F)cc1` [CBK264461] was 116%. The same measure, in the same setting: the value for `Cc1cc([N+](=O)[O-])cc[n+]1[O-]` [CBK261014] was 102%.

For `COc1ccccc1CCNCc1ccc([N+](=O)[O-])cc1` [CBK262292], under “bulk resorufin, single well”, the viability at 28.5 h, 10 µM came to 93.3%. As to `CCc1ccc(CNC(=O)Cn2cc(-c3ccc(CN4CCC(CO)CC4)cc3)nn2)cc1` [CBK167551], the viability at 28.5 h, 10 µM amounted to 105%. Still for that read-out and setting: under `O=C(CN1CCN(S(=O)(=O)N2CCCCCC2)CC1)Nc1cc(Cl)ccc1Cl` [CBK269587] stands 90.1%.
